Legend:
Assay type in all cases: cell-based
[1] = system: LS-180; test: Cell proliferation (cell count by microscopy), Example 3; details: Homo sapiens, LS180; LS-160 (so in the source), single agent, 72 h, cell count relative to DMSO
Method: (§1) COMPOUNDS A, B and C were dissolved in 100% DMSO (Sigma, Catalog number D2650) at concentrations of 20 mM and stored at −20° C. until use. Compounds were arrayed in drug master plates (Greiner, Catalog number 788876) and serially diluted 3-fold (7 steps) at 2000× concentration.
(§2) To test the effect of the combination of COMPOUND A, COMPOUND B, and COMPOUND C on cell proliferation cells were plated in black 384-well microplates with clear bottom (Matrix/Thermo Scientific, Catalog number 4332) in 50 μL media per well at cell densities between 500 and 1250 cells/well (Table 1 above) and allowed to incubate at 37 degrees, 5% CO2 for 24 h. After 24 h one 384-well plate per cell line was prepared for cell counting by microscopy (see below) without receiving treatment (=‘baseline’). The other cell plates were treated by transferring 25 nL of the 2000× compound from drug master plates using an ATS acoustic liquid dispenser (ECD Biosystems) and resulting in a final 1× concentration. COMPOUND A was used over a final concentration range of 13 nM-10 μM, COMPOUND B was used over a final concentration range of 13 nM-10 μM, and COMPOUND C was used over a final concentration range of 13 nM-10 μM (7 1:3 dilution steps). In order to assess the effect of the triple combination all individual COMPOUNDS (A, B, C), all three pair wise combinations (A+B, A+C, B+C), and the triple combination (A+B+C) were tested in the same experiment. Pair wise combinations and the triple combination were tested at a fixed ratio of 1:1 (for drug pairs) and 1:1:1 (for the drug triple) at each dilution resulting in 7 combination conditions per treatment. […] After compound addition 50 nL of 2 mM CellEvent Caspase-3/7 Green Detection Reagent (ThermoFisher, Catalog number C10423) were added to one of the three replicates using the HP D300 Digital Dispenser (Tecan). Caspase 3/7 induction was measured as a proxy for apoptosis induced by the treatments. Cells were treated for 72 h to 96 h depending on their doubling time (Table 1), and Caspase 3/7 activation was measured every 24 h by microscopy using an InCell Analyzer 2000 (GE Healthcare) equipped with a 4× objective and FITC excitation/emission filters. At the end of the treatment cells were prepared for cell counting by microscopy. Cells were fixed and permeabilised for 45 minutes in 4% PFA (Electron Microscopy Sciences, Catalog number 15714), 0.12% TX-100 (Electron Microscopy Sciences, Catalog number 22140) in PBS (Boston Bioproducts, Catalog number BM-220). After washing cells three times with PBS their DNA was stained for 30 minutes with Hoechst 33342 (ThermoFisher, Catalog number H3570) at a final concentration of 4 μg/mL. Cells were washed three times with PBS and then plates were heat-sealed using a PlateLoc (Agilent Technologies) with aluminum seals (Agilent Technologies, Catalog number 06644-001) and stored at 4° C. until imaging. All cells per well/treatment were captured in a single image by fluorescence microscopy using an InCell Analyzer 2000 (GE Healthcare) equipped with a 4× objective and DAPI excitation/emission filters.
(§3) Images were analyzed after adapting previously described methods (Horn, Sandmann et al. 2011, Nat. Methods 8(4): 341-346) and using the Bioconductor package EBImage in R (Pau, Fuchs et al. 2010, Bioinformatics 26(7):979-981). Objects in both channels, DAPI (for Hoechst/DNA) and FITC (for Caspase 3/7), were segmented separately by adaptive thresholding and counted. A threshold for Caspase 3/7 positive objects was defined manually per cell line after comparing negative controls (DMSO) and positive controls (Staurosporine). By analyzing 17 additional object/nuclei features in the DNA channel (shape and intensity features) debris/fragmented nuclei were identified. To this end per cell line the distributions of the additional features between positive controls (Staurosporine) and negative controls (DMSO) were compared manually. […]

[2] = system: GP2d; test: as above; details: single agent, 72 h, cell count relative to DMSO, unit (micromolar, top dose 10 μM)
Method: as §1, §2, §3

[3] = system: LoVo; test: as above; details: Homo sapiens, single agent, 96 h, cell count relative to DMSO
Method: as §1, §2, §3

[4] = system: RKO; test: as above; details: Homo sapiens, single agent, 72 h, cell count relative to DMSO
Method: as §1, §2, §3

[5] = system: HCT-116; test: as above; details: Homo sapiens; HCT-116, single agent, 72 h, cell count relative to DMSO
Method: as §1, §2, §3

[6] = system: 5 TP53 wild type colorectal cancer cell lines; test: Cell proliferation over the cell line panel, Example 3; details: Example 3, panel of 5 lines, 13 nM-10 μM
Method: To test the effect of the combination of COMPOUND A, COMPOUND B, and COMPOUND C on cell proliferation cells were plated in black 384-well microplates with clear bottom (Matrix/Thermo Scientific, Catalog number 4332) in 50 μL media per well at cell densities between 500 and 1250 cells/well (Table 1 above) and allowed to incubate at 37 degrees, 5% CO2 for 24 h. After 24 h one 384-well plate per cell line was prepared for cell counting by microscopy (see below) without receiving treatment (=‘baseline’). The other cell plates were treated by transferring 25 nL of the 2000× compound from drug master plates using an ATS acoustic liquid dispenser (ECD Biosystems) and resulting in a final 1× concentration. COMPOUND A was used over a final concentration range of 13 nM-10 μM, COMPOUND B was used over a final concentration range of 13 nM-10 μM, and COMPOUND C was used over a final concentration range of 13 nM-10 μM (7 1:3 dilution steps). In order to assess the effect of the triple combination all individual COMPOUNDS (A, B, C), all three pair wise combinations (A+B, A+C, B+C), and the triple combination (A+B+C) were tested in the same experiment. […] Caspase 3/7 induction was measured as a proxy for apoptosis induced by the treatments. Cells were treated for 72 h to 96 h depending on their doubling time (Table 1), and Caspase 3/7 activation was measured every 24 h by microscopy using an InCell Analyzer 2000 (GE Healthcare) equipped with a 4× objective and FITC excitation/emission filters. […] All cells per well/treatment were captured in a single image by fluorescence microscopy using an InCell Analyzer 2000 (GE Healthcare) equipped with a 4× objective and DAPI excitation/emission filters.
Images were analyzed after adapting previously described methods (Horn, Sandmann et al. 2011, Nat. Methods 8(4): 341-346) and using the Bioconductor package EBImage in R (Pau, Fuchs et al. 2010, Bioinformatics 26(7):979-981). Objects in both channels, DAPI (for Hoechst/DNA) and FITC (for Caspase 3/7), were segmented separately by adaptive thresholding and counted. […]

IC50 [3] [nM] | IC50 [5] [nM] | Compound | IC50 [1] [nM] | IC50 [2] [nM] | IC50 [4] [nM] | Single agent growth inhibition, in words [6]
600 | 100 | COc1cc2c(cc1OC(C)C)[C@H](c1ccc(Cl)cc1)N(c1ccc(N(C)C[C@H]3CC[C@H](N4CCN(C)C(=O)C4)CC3)cc1)C(=O)C2 [COMPOUND B, (S)-1-(4-Chloro-phenyl)-7-isopropoxy-6-methoxy-2-(4-{methyl-[4-(4-methyl-3-oxo-piperazin-1-yl)-trans-cyclohexylmethyl]-amino}-phenyl)-1,4-dihydro-2H-isoquinolin-3-one] | 700 | 800 | 1200 | inhibited the growth of cell lines with sub-micromolar to micromolar IC50 values
> 10000 | 9800 | Cc1nc(NC(=O)N2CCC[C@H]2C(N)=O)sc1-c1ccnc(C(C)(C)C(F)(F)F)c1 [COMPOUND A, (S)-Pyrrolidine-1,2-dicarboxylic acid 2-amide 1-({4-methyl-5-[2-(2,2,2-trifluoro-1,1-dimethyl-ethyl)-pyridin-4-yl]-thiazol-2-yl}-amide)] | > 10000 | 500 | 3900 | inhibited the growth of 2 of the cell lines with micromolar IC50 values, and was active only at the highest dose (10 μM) in the 3 other lines

Source: patent US20180318275A1, “COMBINATION THERAPY USING PI3K INHIBITOR AND MDM2 INHIBITOR” (Novartis AG, priority 2015, published 2018)
